The results in this text go back to patent US20180353457A1, “ABIETANE DITERPENOID 7-ACETOXYROYLEANONES FOR USE IN CANCER TREATMENT” (University of South Carolina, priority 2017, published 2018).

Each structure is given as a SMILES string. Where two headings read alike, the source gives them in different places.

The subject of data set [1] is SK-OV-3 (ovarian adenocarcinoma) cells. Description: MTS cytotoxicity assay, SK-OV-3. Format: cell-based. The following applies: SK-OV-3 cells. The text has this:
(§1) Human cell lines used included MG-63 (osteosarcoma), SK-OV-3 (ovarian adenocarcinoma), MDA-MB-231 (breast adenocarcinoma derived from a metastatic site), HCT 116 (colorectal carcinoma), HCT 116/200 (an FdUrd resistant subclone of HCT 116 cells), and A2780ADR (a doxorubicin resistant subclone of the ovarian carcinoma A2780). All cells were stored in liquid nitrogen until use. MG-63, SK-OV-3, MDA-MB-231, and HCT 116 cell lines were all obtained from ATCC. A2780ADR cells were obtained from Sigma-Aldrich. HCT 116/200 cells were obtained from Dr. Franklin G. Berger from the Center for Colon Cancer Research. MG-63 cells were maintained in MEM medium (Corning) supplemented with 10% Fetal Bovine Essence (VWR) and 1% penicillin/streptomycin solution (Corning). SK-OV-3 cells were maintained in McCoy's 5A Medium (Sigma) supplemented with Fetal Bovine Essence and 1% penicillin/streptomycin. […]
(§2) Cells were first grown to approximately 80% confluency within […] tissue culture flasks (VWR). […] Cells were counted using a hemocytometer and their viability was confirmed using trypan blue (Gibco). […]
(§3) In combination studies, 7-acetoxyroyleanone and FdUrd were first mixed into the same media and then added to the cells. […] The cells were incubated for 2 hours, and the absorbance of each well at 490 nm was measured using a Spectramax 190 microplate reader.

The test system of data set [2] is HCT 116 (colorectal carcinoma) cells. Briefly: MTS cytotoxicity assay, HCT 116. The data set is classed as cell-based. The following applies: HCT 116 cells.
From the text: as §1, §2, §3
(Tetrazolium dyes change colour on reduction, which living cells bring about.)

Data set [3] deals with HCT 116/200 (FdUrd resistant subclone of HCT 116) cells. Description: MTS cytotoxicity assay, HCT 116/200. Particulars: HCT 116/200 cells. Format: cell-based.
From the text: as §1, §2, §3

The test system of data set [4] is NCI-60 panel of cancer cell lines. Particulars: for GI50: across all 60 cell lines.
Data set [5] deals with A498 (renal cancer) cells. Description: NCI-60 five dose screen, A498. The following applies: read-out: LC50; A498, Renal.
Data set [6] deals with DU-145 (prostate cancer) cells. Description: NCI-60 five dose screen, DU-145. Particulars: read-out: LC50; DU-145, Prostate.
For data set [7], the system named is HOP-92 (non-small cell lung cancer) cells. Briefly: NCI-60 five dose screen, HOP-92. The following applies: read-out: LC50; HOP-92, Non-small Cell Lung Cancer.
The test system of data set [8] is OVCAR-3 (ovarian cancer) cells. Description: NCI-60 five dose screen, OVCAR-3. The following applies: read-out: LC50; OVCAR-3, Ovarian.
For data set [9], the system named is MDA-MB-435 (melanoma) cells. Briefly: NCI-60 five dose screen, MDA-MB-435. The following applies: read-out: LC50; MDA-MB-435, Melanoma.
Where [10] appears, read: 48 and 72 hours of exposure, MTS.

Regarding `CC(=O)O[C@@H]1C[C@H]2C(C)(C)CCC[C@]2(C)C2=C1C(=O)C(C(C)C)=C(O)C2=O` [7-acetoxyroyleanone], the “cell death at the lowest concentration tested” value in data set [1] (1 μg/mL) and in data set [2] (1 μg/mL) was “cell death was indicated” each time. The “cytotoxicity (percent viability)” value in data set [1] (setting [10]) is reported as “significant cytotoxic properties”; in [2] (setting [10]), “significant cytotoxic properties”; in [3] (48 and 72 hours of exposure), “significant cytotoxic properties”. The “cytotoxic effect in combination with FdUrd (percent viability, cell number)” value in data set [3] (48 hour exposure, combined with 1 μg/mL FdUrd) is recorded as “synergistic cytotoxic effect”. For the same compound, the CC50 stood at 11.5 µM in data set [4]; 5.19 µM in [5]; 5.67 µM in data set [6]; 5.4 µM in [7]; 7.46 µM in [8]; 5.87 µM in data set [9]. Besides, the “average TGI concentration” value in [4] (across the 50 cell lines with TGI within the range tested) turned out to be 6.69 µM. In addition, the GI50 in [4] (read-out: average GI50 concentration, five dose screen) was found to be 1.27 µM; in data set [4] (read-out: range of the GI50 concentrations), 2.86 µM.
